Assay results: the NIST ThermoML archive (doi:10.1016/j.jct.2018.02.017)
± gives the expanded uncertainty stated by the source.

What was measured:
[1] = 100 kPa, Liquid, Vibrating tube method
[2] = xn = mol fraction of the nth substance listed; settings: 100 kPa, Liquid, Vibrating tube method
[3] = excess molar enthalpy (molar enthalpy of mixing); xn = mol fraction of the nth substance listed; settings: 100 kPa, Liquid, Flow calorimetry
[4] = mn = molality of the nth substance listed, in mol/kg; settings: 298.15 K, 100 kPa, Liquid, Falling or rolling sphere viscometry

CCCCn1cc[n+](C)c1.N#CN=C=[N-] [1-butyl-3-methylimidazolium dicyanamide]
[1]
Settings | mass density [kg/m3]
288.15 K | 1065.64 ± 1
293.15 K | 1062.04 ± 1
298.15 K | 1059.22 ± 1
303.15 K | 1056.04 ± 1
308.15 K | 1052.88 ± 1
313.15 K | 1049.74 ± 1
318.15 K | 1046.63 ± 1
323.15 K | 1043.5 ± 1
328.15 K | 1040.4 ± 1
333.15 K | 1037.38 ± 1

CCCCn1cc[n+](C)c1.N#CN=C=[N-] [1-butyl-3-methylimidazolium dicyanamide] + O
Settings | excess molar enthalpy, [3] [kJ/mol] | mass density, [2] [kg/m3]
288.15 K, x1 = 0.000389 | 0.00023 ± 0.00078 | 999.45 ± 0.03
288.15 K, x1 = 0.000777 | 0.00058 ± 0.00078 | 999.8 ± 0.03
288.15 K, x1 = 0.001165 | 0.00097 ± 0.00078 | 1000.14 ± 0.04
288.15 K, x1 = 0.001552 | 0.0014 ± 0.00079 | 1000.47 ± 0.04
288.15 K, x1 = 0.00194 | 0.00183 ± 0.00079 | 1000.79 ± 0.04
288.15 K, x1 = 0.002327 | 0.00229 ± 0.00079 | 1001.11 ± 0.04
298.15 K, x1 = 0.000388 | 0.00083 ± 0.00078 | 997.35 ± 0.04
298.15 K, x1 = 0.000777 | 0.00179 ± 0.00079 | 997.65 ± 0.04
298.15 K, x1 = 0.001165 | 0.00278 ± 0.0008 | 997.93 ± 0.04
298.15 K, x1 = 0.001552 | 0.00378 ± 0.0008 | 998.21 ± 0.04
298.15 K, x1 = 0.001939 | 0.0048 ± 0.00081 | 998.48 ± 0.04
298.15 K, x1 = 0.002327 | 0.00586 ± 0.00082 | 998.75 ± 0.03
308.15 K, x1 = 0.000389 | 0.00147 ± 0.00079 | 994.29 ± 0.04
308.15 K, x1 = 0.000777 | 0.00309 ± 0.0008 | 994.54 ± 0.04
308.15 K, x1 = 0.001165 | 0.00473 ± 0.00081 | 994.79 ± 0.04
308.15 K, x1 = 0.001552 | 0.00635 ± 0.00083 | 995.02 ± 0.04
308.15 K, x1 = 0.00194 | 0.00797 ± 0.00084 | 995.25 ± 0.04
308.15 K, x1 = 0.002327 | 0.00962 ± 0.00087 | 995.48 ± 0.04
318.15 K, x1 = 0.000388 | 0.00214 ± 0.00079 | 990.43 ± 0.04
318.15 K, x1 = 0.000777 | 0.00443 ± 0.00081 | 990.65 ± 0.04
318.15 K, x1 = 0.001165 | 0.00672 ± 0.00083 | 990.85 ± 0.04
318.15 K, x1 = 0.001552 | 0.00898 ± 0.00086 | 991.06 ± 0.04
318.15 K, x1 = 0.00194 | 0.0113 ± 0.00091 | 991.25 ± 0.04
318.15 K, x1 = 0.002328 | 0.0135 ± 0.00098 | 991.45 ± 0.04

[4]
Settings | viscosity [mPa·s]
m1 = 0.01061 | 0.8936 ± 0.011
m1 = 0.01522 | 0.895 ± 0.011
m1 = 0.03084 | 0.901 ± 0.011
m1 = 0.05091 | 0.9086 ± 0.011
m1 = 0.06874 | 0.9157 ± 0.011
m1 = 0.08186 | 0.9219 ± 0.011
